Measurements published in the NIST ThermoML archive (doi:10.1016/j.jct.2015.09.029).
Numbers after ± are expanded uncertainties.

Assay: mn = molality of the nth substance listed, in mol/kg
Conditions: 100 kPa, Liquid; for viscosity: Capillary tube (Ostwald / Ubbelohde) method; for speed of sound: Frequency=2 MHz, Linear variable-path acoustic interferometer; for mass density: Vibrating tube method

With `CC(C)C[P+](C)(CC(C)C)CC(C)C.Cc1ccc(S(=O)(=O)[O-])cc1` [triisobutylmethylphosphonium p-toluenesulfonate] + O the viscosity (298.15 K, m1 = 0.0237) was 0.9191 ± 0.019 mPa·s, the viscosity (298.15 K, m1 = 0.0468) was 0.9471 ± 0.02 mPa·s and the viscosity (298.15 K, m1 = 0.0663) was 0.9707 ± 0.02 mPa·s. It also gave a viscosity (298.15 K, m1 = 0.0901) of 0.9996 ± 0.021 mPa·s, a viscosity (298.15 K, m1 = 0.1848) of 1.115 ± 0.023 mPa·s and a viscosity (298.15 K, m1 = 0.2883) of 1.241 ± 0.026 mPa·s. The viscosity (298.15 K, m1 = 0.3948) was 1.373 ± 0.029 mPa·s, the viscosity (298.15 K, m1 = 0.4278) was 1.413 ± 0.03 mPa·s and the viscosity (298.15 K, m1 = 0.478) was 1.475 ± 0.031 mPa·s. For the same molecule, the viscosity (298.15 K, m1 = 0.5156) was 1.522 ± 0.032 mPa·s, the speed of sound (298.15 K, m1 = 0.0237) was 1507.2 ± 4.3 m/s and the speed of sound (298.15 K, m1 = 0.0468) was 1513.7 ± 4.3 m/s. It also gave a speed of sound (298.15 K, m1 = 0.0663) of 1518.8 ± 4.3 m/s, a speed of sound (298.15 K, m1 = 0.0901) of 1524.8 ± 4.3 m/s and a speed of sound (298.15 K, m1 = 0.1848) of 1546.4 ± 4.3 m/s. It also gave a speed of sound (298.15 K, m1 = 0.2883) of 1566.5 ± 4.3 m/s, a speed of sound (298.15 K, m1 = 0.3948) of 1586.1 ± 4.3 m/s and a speed of sound (298.15 K, m1 = 0.4278) of 1592.4 ± 4.3 m/s. For the same molecule, the speed of sound (298.15 K, m1 = 0.478) was 1601.7 ± 4.4 m/s, the speed of sound (298.15 K, m1 = 0.5156) was 1608.3 ± 4.4 m/s and the mass density (298.15 K, m1 = 0.0237) was 997.74 ± 0.11 kg/m3. For the same molecule, the mass density (298.15 K, m1 = 0.0468) was 998.42 ± 0.11 kg/m3, the mass density (298.15 K, m1 = 0.0663) was 999 ± 0.11 kg/m3 and the mass density (298.15 K, m1 = 0.0901) was 999.7 ± 0.11 kg/m3. The mass density (298.15 K, m1 = 0.1848) was 1002.5 ± 0.12 kg/m3, the mass density (298.15 K, m1 = 0.2883) was 1005.48 ± 0.14 kg/m3 and the mass density (298.15 K, m1 = 0.3948) was 1008.42 ± 0.17 kg/m3. It also gave a mass density (298.15 K, m1 = 0.4278) of 1009.28 ± 0.18 kg/m3, a mass density (298.15 K, m1 = 0.478) of 1010.56 ± 0.2 kg/m3 and a mass density (298.15 K, m1 = 0.5156) of 1011.48 ± 0.22 kg/m3. It also gave a viscosity (303.15 K, m1 = 0.0237) of 0.8224 ± 0.017 mPa·s, a viscosity (303.15 K, m1 = 0.0468) of 0.8466 ± 0.018 mPa·s and a viscosity (303.15 K, m1 = 0.0663) of 0.8669 ± 0.018 mPa·s. For the same molecule, the viscosity (303.15 K, m1 = 0.0901) was 0.8919 ± 0.019 mPa·s, the viscosity (303.15 K, m1 = 0.1848) was 0.9914 ± 0.021 mPa·s and the viscosity (303.15 K, m1 = 0.2883) was 1.101 ± 0.023 mPa·s. For the same molecule, the viscosity (303.15 K, m1 = 0.3948) was 1.214 ± 0.026 mPa·s, the viscosity (303.15 K, m1 = 0.4278) was 1.249 ± 0.027 mPa·s and the viscosity (303.15 K, m1 = 0.478) was 1.302 ± 0.028 mPa·s. It also gave a viscosity (303.15 K, m1 = 0.5156) of 1.343 ± 0.029 mPa·s, a speed of sound (303.15 K, m1 = 0.0237) of 1518.8 ± 4.3 m/s and a speed of sound (303.15 K, m1 = 0.0468) of 1525.3 ± 4.3 m/s. The speed of sound (303.15 K, m1 = 0.0663) was 1530.8 ± 4.3 m/s, the speed of sound (303.15 K, m1 = 0.0901) was 1536.6 ± 4.3 m/s and the speed of sound (303.15 K, m1 = 0.1848) was 1555.9 ± 4.3 m/s. It also gave a speed of sound (303.15 K, m1 = 0.2883) of 1574.5 ± 4.3 m/s, a speed of sound (303.15 K, m1 = 0.3948) of 1590.7 ± 4.3 m/s and a speed of sound (303.15 K, m1 = 0.4278) of 1596.2 ± 4.3 m/s. The speed of sound (303.15 K, m1 = 0.478) was 1604 ± 4.4 m/s, the speed of sound (303.15 K, m1 = 0.5156) was 1609.4 ± 4.4 m/s and the mass density (303.15 K, m1 = 0.0237) was 996.31 ± 0.11 kg/m3. It also gave a mass density (303.15 K, m1 = 0.0468) of 996.97 ± 0.11 kg/m3, a mass density (303.15 K, m1 = 0.0663) of 997.53 ± 0.11 kg/m3 and a mass density (303.15 K, m1 = 0.0901) of 998.21 ± 0.11 kg/m3. For the same molecule, the mass density (303.15 K, m1 = 0.1848) was 1000.89 ± 0.12 kg/m3, the mass density (303.15 K, m1 = 0.2883) was 1003.76 ± 0.14 kg/m3 and the mass density (303.15 K, m1 = 0.3948) was 1006.58 ± 0.17 kg/m3. The mass density (303.15 K, m1 = 0.4278) was 1007.42 ± 0.18 kg/m3, the mass density (303.15 K, m1 = 0.478) was 1008.64 ± 0.2 kg/m3 and the mass density (303.15 K, m1 = 0.5156) was 1009.52 ± 0.21 kg/m3. The viscosity (308.15 K, m1 = 0.0253) was 0.7415 ± 0.016 mPa·s, the viscosity (308.15 K, m1 = 0.053) was 0.7656 ± 0.016 mPa·s and the viscosity (308.15 K, m1 = 0.0791) was 0.7883 ± 0.017 mPa·s. For the same molecule, the viscosity (308.15 K, m1 = 0.1003) was 0.8068 ± 0.017 mPa·s, the viscosity (308.15 K, m1 = 0.2056) was 0.8989 ± 0.019 mPa·s and the viscosity (308.15 K, m1 = 0.2689) was 0.9546 ± 0.02 mPa·s. It also gave a viscosity (308.15 K, m1 = 0.3193) of 0.999 ± 0.021 mPa·s, a viscosity (308.15 K, m1 = 0.3643) of 1.039 ± 0.022 mPa·s and a viscosity (308.15 K, m1 = 0.4345) of 1.101 ± 0.024 mPa·s. It also gave a viscosity (308.15 K, m1 = 0.5175) of 1.175 ± 0.025 mPa·s, a speed of sound (308.15 K, m1 = 0.0253) of 1528.8 ± 4.3 m/s and a speed of sound (308.15 K, m1 = 0.053) of 1536.4 ± 4.3 m/s. It also gave a speed of sound (308.15 K, m1 = 0.0791) of 1541.7 ± 4.3 m/s, a speed of sound (308.15 K, m1 = 0.1003) of 1545.6 ± 4.3 m/s and a speed of sound (308.15 K, m1 = 0.2056) of 1566.2 ± 4.3 m/s. The speed of sound (308.15 K, m1 = 0.2689) was 1577.9 ± 4.3 m/s, the speed of sound (308.15 K, m1 = 0.3193) was 1587.2 ± 4.3 m/s and the speed of sound (308.15 K, m1 = 0.3643) was 1592.7 ± 4.3 m/s. For the same molecule, the speed of sound (308.15 K, m1 = 0.4345) was 1602 ± 4.3 m/s, the speed of sound (308.15 K, m1 = 0.5175) was 1612.8 ± 4.4 m/s and the mass density (308.15 K, m1 = 0.0253) was 994.73 ± 0.11 kg/m3. For the same molecule, the mass density (308.15 K, m1 = 0.053) was 995.49 ± 0.11 kg/m3, the mass density (308.15 K, m1 = 0.0791) was 996.21 ± 0.11 kg/m3 and the mass density (308.15 K, m1 = 0.1003) was 996.79 ± 0.11 kg/m3. It also gave a mass density (308.15 K, m1 = 0.2056) of 999.66 ± 0.13 kg/m3, a mass density (308.15 K, m1 = 0.2689) of 1001.35 ± 0.14 kg/m3 and a mass density (308.15 K, m1 = 0.3193) of 1002.66 ± 0.15 kg/m3. For the same molecule, the mass density (308.15 K, m1 = 0.3643) was 1003.8 ± 0.16 kg/m3, the mass density (308.15 K, m1 = 0.4345) was 1005.51 ± 0.18 kg/m3 and the mass density (308.15 K, m1 = 0.5175) was 1007.42 ± 0.21 kg/m3. The viscosity (313.15 K, m1 = 0.0253) was 0.6717 ± 0.014 mPa·s, the viscosity (313.15 K, m1 = 0.053) was 0.692 ± 0.015 mPa·s and the viscosity (313.15 K, m1 = 0.0791) was 0.7111 ± 0.015 mPa·s. The viscosity (313.15 K, m1 = 0.1003) was 0.7266 ± 0.015 mPa·s, the viscosity (313.15 K, m1 = 0.2056) was 0.8042 ± 0.017 mPa·s and the viscosity (313.15 K, m1 = 0.2689) was 0.851 ± 0.018 mPa·s. For the same molecule, the viscosity (313.15 K, m1 = 0.3193) was 0.8883 ± 0.019 mPa·s, the viscosity (313.15 K, m1 = 0.3643) was 0.9218 ± 0.02 mPa·s and the viscosity (313.15 K, m1 = 0.4345) was 0.9741 ± 0.021 mPa·s. The viscosity (313.15 K, m1 = 0.5175) was 1.036 ± 0.022 mPa·s, the speed of sound (313.15 K, m1 = 0.0253) was 1538.7 ± 4.3 m/s and the speed of sound (313.15 K, m1 = 0.053) was 1545.1 ± 4.3 m/s. For the same molecule, the speed of sound (313.15 K, m1 = 0.0791) was 1551.5 ± 4.3 m/s, the speed of sound (313.15 K, m1 = 0.1003) was 1556.3 ± 4.3 m/s and the speed of sound (313.15 K, m1 = 0.2056) was 1575.1 ± 4.3 m/s. It also gave a speed of sound (313.15 K, m1 = 0.2689) of 1584.7 ± 4.3 m/s, a speed of sound (313.15 K, m1 = 0.3193) of 1592.3 ± 4.3 m/s and a speed of sound (313.15 K, m1 = 0.3643) of 1598.1 ± 4.3 m/s. The speed of sound (313.15 K, m1 = 0.4345) was 1607.3 ± 4.3 m/s, the speed of sound (313.15 K, m1 = 0.5175) was 1617.1 ± 4.4 m/s and the mass density (313.15 K, m1 = 0.0253) was 992.9 ± 0.11 kg/m3. For the same molecule, the mass density (313.15 K, m1 = 0.053) was 993.66 ± 0.11 kg/m3, the mass density (313.15 K, m1 = 0.0791) was 994.36 ± 0.11 kg/m3 and the mass density (313.15 K, m1 = 0.1003) was 994.92 ± 0.11 kg/m3. The mass density (313.15 K, m1 = 0.2056) was 997.66 ± 0.13 kg/m3, the mass density (313.15 K, m1 = 0.2689) was 999.26 ± 0.14 kg/m3 and the mass density (313.15 K, m1 = 0.3193) was 1000.5 ± 0.15 kg/m3. It also gave a mass density (313.15 K, m1 = 0.3643) of 1001.59 ± 0.16 kg/m3, a mass density (313.15 K, m1 = 0.4345) of 1003.25 ± 0.18 kg/m3 and a mass density (313.15 K, m1 = 0.5175) of 1005.14 ± 0.21 kg/m3.
